Assay [1] has as its system RASless MEF cells expressing BRAF V600E. Briefly: Proliferation of RASless MEF cells expressing BRAF V600E. The note with it: Mus musculus, normalized to DMSO control, 3 measurements, read-out: IC50 for inhibition of proliferation. It counts as cell-based. As for the experimental part: Cell numbers were averaged from 3 independent measurements and normalized with respect to DMSO control. Assays were conducted as described in McCarthy et al, (ACS Omega2019, 4, 2, 2921-2930).

Assay [2] concerns the target T1, KRAS^G12D-cRaf interaction (Homo sapiens, UniProt P01116, G12D).
T1 construct: expressed in transfected cells; host or cells: BHK (baby hamster kidney) cells, transient expression
Kind of assay: FLIM-FRET of GFP-KRAS G12D and RFP-cRaf in BHK cells. It is filed as cell-based, hamster. Particulars: 1 μM. The source says: [formula] where P1 is polarization of free KRAS, P2 is polarization of Raf-bound KRAS, c is the total concentration of KRAS, and x the total concentration of Raf^RBD. (FIG. 2B) Amount of GFP-KRAS^G12D pulled down by GST-Raf^RBD after treatment of cell lysates with compound at the concentrations indicated (representative Westerns are shown at the top). The RBD sequence length was 1-149 and 51-131 in the fluorescence polarization and pull-down assays, respectively. (FIG. 2C) GFP fluorescence lifetime from FLIM-FRET using cells expressing GFP-KRAS^G12D alone or with RFP-Raf, with or without treatment by 1 μM compound 11. Data are shown as mean±S.E; significance estimated by one-way analysis of variance.
Fluorescence lifetime imaging (FLIM)-fluorescence resonance energy transfer (FRET). FLIM-FRET experiments were carried out using a lifetime fluorescence imaging attachment (Lambert Instruments, The Netherlands) on an inverted microscope (43). BHK cells transiently expressing mGFP-tagged KRAS^G12D (donor), alone or with mRFP-tagged cRaf^WT (acceptor) (using 1:5 ratio), were prepared as indicated in each experiment. The samples were excited using a sinusoidally modulated 3 W 470 nm light-emitting diode at 40 MHz under epi-illumination. Fluorescein was used as a lifetime reference standard. […] The phase and modulation were determined from 12 phase settings using the manufacturer's software. […]

In assay [3] the test system is KRAS^G12D. Briefly: Cell signaling (Western) in BHK cells expressing KRAS G12D. Particulars: for IC50: Mesocricetus auratus, BHK, 3 h. It is filed as cell-based, hamster. On the procedure: Cell signaling. The inhibitory potential of compounds was tested in monoclonal Baby Hamster Kidney (BHK) cell lines stably expressing monomeric green fluorescence protein (mGFP)-tagged KRAS^G12D, K-Ras^G12V and HRAS^G12V. Cells were cultured in Dulbecco's Modified Eagle Medium (DMEM, Hyclone) supplemented with 10% v/v bovine calf serum and incubated with compound or vehicle (DMSO) for 3 h without serum. Cells were then harvested in lysis buffer (50 mM Tris (pH 7.5), 75 mM NaCl, 25 mM NaF, 5 mM MgCl2, 5 mM EGTA, 1 mM dithiothreitol, 100 μM NaVO4, 1% Nonidet P40 plus protease inhibitors) and subjected to Western analysis controlling protein loading by BCA (bicinchoninic acid) assay. Lysates were resolved with Bio-Rad polyacrylamide TGX 10% gel, transferred to polyvinylidene fluoride (PVDF) membrane and immunoblotted using pan-AKT (2920S), GFP (2956S), pAKT^S473 (4060L), p-cRaf^S338 (9427S), p-ERK^T202/Y204 (4370L), ERK1/2 (4695S) or β-actin antibodies (Cell Signaling Technology). IC50 values were calculated with Prism 4-parameter fit.
Cell signaling assays identify compound 11 as a promising initial hit Western analysis was used to quickly assess the potential impact of the predicted hits on MAPK signaling, a major pathway mediated by KRAS. Specifically, ERK1/2 phosphorylation levels (p-ERK) were monitored in BHK cells stably expressing KRAS^G12D treated with vehicle (DMSO), the MEK inhibitor […] (U) or compound at four different concentrations (1-100 μM). […] Compounds 9 and 11 (structures for compounds 1-11 are provided in Appendix I, attached hereto), on the other hand, decreased p-ERK levels at concentrations ≥50 μM and ≥5 μM, respectively. To verify the latter observation, the experiments were repeated in an expanded concentration range starting from 0.1 μM. […] However, compound 9 (see Appendix I, attached hereto) increased p-ERK levels at 25 and 38 μM in contrast to the decrease observed at higher concentrations (FIG. S1B; see Appendix I, attached hereto).

“Also recorded” adds a separate entry of the source. Like-named read-outs stand apart in the source and are kept apart here.

For the compound `Cc1nn2c(N3CCN(CCO)CC3)cc(-c3ccccc3)nc2c1-c1ccccc1` [Compound 11, 2-[4-(8-methyl-3,9-diphenyl-2,6,7-triazabicyclo[4.3.0]nona-2,4,7,9-tetraen-5-yl)piperazin-1-yl]ethanol], in assay [1], the IC50 came to 1680 ± 170 nM. In addition, in assay [2], the “KRAS^G12D-cRaf interaction (quenching of GFP fluorescence lifetime)” value is “significantly reduced”. Besides, in assay [3] (BHK KRAS^G12D), the “concentration at which p-ERK levels are decreased” value is not below 5 µM, the “effect on p-ERK levels” value is “dose-dependently reduced; also recorded: dose-dependently decreases” and the “effect on p-cRaf levels” value is on record as “dose-dependently reduced; also recorded: dose-dependently decreases”. Besides, the “reduction of p-ERK levels” value in assay [3] (BHK KRAS^G12D, at 5 μM) is approximately 50%. For the same compound, in assay [3] (read-out: IC50 for p-ERK), the IC50 was 1300 nM. In addition, the IC50 in assay [3] (read-out: IC50 for p-cRaf) is 700 nM.
